The results in this text go back to patent US20100261753A1, “METHODS FOR PREVENTING AND/OR TREATING DEGENERATIVE DISORDERS OF THE CENTRAL NERVOUS SYSTEM” (AMICUS THERAPEUTICS, INC., priority 2009, published 2010).

Series [1] concerns the target T1, recombinant human GCase (rhGCase; Cerezyme) (Homo sapiens, UniProt P04062, R534H).
T1 construct: purchased Genzyme Corp
T1 sequence (P04062 40-536 R534H): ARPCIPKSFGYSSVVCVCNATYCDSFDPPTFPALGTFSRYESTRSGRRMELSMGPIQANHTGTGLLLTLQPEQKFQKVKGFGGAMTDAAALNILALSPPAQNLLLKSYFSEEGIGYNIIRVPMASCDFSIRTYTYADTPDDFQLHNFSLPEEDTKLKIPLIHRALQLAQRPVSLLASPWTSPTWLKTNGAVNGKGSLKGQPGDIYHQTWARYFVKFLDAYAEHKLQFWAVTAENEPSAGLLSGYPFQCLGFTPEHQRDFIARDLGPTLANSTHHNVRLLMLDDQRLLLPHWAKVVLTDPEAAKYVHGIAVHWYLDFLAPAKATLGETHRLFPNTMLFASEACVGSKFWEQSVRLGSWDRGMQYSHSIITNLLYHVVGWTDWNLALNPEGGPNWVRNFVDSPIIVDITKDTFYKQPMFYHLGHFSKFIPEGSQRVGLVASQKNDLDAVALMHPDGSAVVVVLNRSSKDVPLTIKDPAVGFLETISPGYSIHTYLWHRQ
As to the kind of experiment: In vitro enzyme inhibition assay of rhGCase with 4-MU-β-D-Glc substrate. Format: biochemical. Conditions: for Ki: from IC50 by Cheng-Prusoff equation. How it is done:
The binding affinity (defined here by Ki binding constant) of GCase for small molecule pharmacological chaperones described in this document were empirically determined using enzyme inhibition assays. In brief, the enzyme inhibition assays used monitored the ability of test compound to bind and prevent the hydrolysis of a fluorogenic substrate in a concentration-dependent manner. Specifically, the enzyme activity of recombinant human GCase (rhGCase; Cerezyme®, Genzyme Corp.) was measured using the 4-methylumbelliferyl-β-D-glucopyranoside (4-MU-β-D-Glc) fluorogenic substrate in the absence or in the presence of varying amounts of each test compound. […] The enzyme inhibition assays were performed at both pH 7.0 (endoplasmic reticulum pH) and at pH 5.2 (lysosomal pH) to gain insight into the binding affinity (i.e., potency) of compounds for GCase in the endoplasmic reticulum and lysososome.
Enzyme (Cerezyme®, a recombinant form of the human enzyme β-glucocerebrosidase) was also diluted in the same buffer “M” at pH 7.0 and pH 5.2. […] Five μl of diluted enzyme was added to 15 μl of the various inhibitor concentrations or buffer “M” alone and incubated at 37° C. for 1 hour with 50 μl of the substrate preparation to assess β-glucosidase activity at pH 7.0 and pH 5.2.

Series [2] concerns the target T2, GCase (Homo sapiens, UniProt P04062).
T2 sequence (P04062 40-536): T1 sequence (P04062 40-536 R534H) with H495R
As to the kind of experiment: GCase activity enhancement (EC50, Emax; Table 2B). Format: cell-based.

Series [3] can be described thus: Blood brain barrier penetration after a single p.o. dose in mice. Format: in vivo, mice (C57BL/6). Particulars: single 30 mg/kg (free base equivalent) p.o. As to the method: For this purpose, 8-week old wild-type male mice (C57BL/6) were administered a single 30 mg/kg (free base equivalent) p.o. dose of reference or test compound by gavage (n=3 mice per time point). Dosing solutions were prepared in water. After dosing, mice were euthanized with CO2 at the following time points: 0-, 0.5-, 1-, and 4-hour post-dose. […] Similarly, brains were collected from each mouse. Plasma was derived by spinning whole blood at 2700 g for 10 minutes at 4° C. followed by storage on dry ice. Whole brains were washed in cold PBS to remove contaminating blood, blotted dry, flash frozen on dry ice, and ultimately stored at −80° C. until analysis. To prepare brain samples for analysis, 50-100 mg of tissue was homogenized in […]. Samples were then clarified by centrifugation. Next, 25 μl of the brain homogenate supernatant or 25 μl of plasma were combined with 25 μl of acetonitrile:water (95/5). […] Between 20 and 30 μl sample was injected for analysis. […] When Compound B was analyzed, Compound A was used as internal standard (150.1/130.1). For calculating drug concentrations, raw data for plasma (ng/mL) and brain (ng/g) was converted to nM using the molecular weight of respective compounds and assuming 1 g of tissue is equivalent to 1 mL volume. Concentration as a function of time was plotted in GraphPad Prism version 4.02.

Series [4] deals with T3, lysosomal GCase (Homo sapiens, UniProt P04062).
T3 construct: lysosomal GCase activity was assayed in situ using fibroblasts established from a normal subject; endogenous in cells; host or cells: fibroblasts established from a normal subject
T3 sequence (P04062 40-536): T1 sequence (P04062 40-536 R534H) with H495R
As to the kind of experiment: In situ lysosomal GCase inhibition and washout assay in fibroblasts from a normal subject. Particulars: for IC50: normal fibroblasts, 16-24 h incubation, PFBFDβGlu substrate; for In Situ Washout: washout time after treatment at IC90, single exponential fit. Type of series: cell-based. As to the method:
For the dose-response assays, cells were incubated with the in situ substrate 5-(pentafluorobenzoylamino)fluorescein di-β-D-glucopyranoside (PFBFDβGlu) for 1 hour and subsequently lysed to determine the extent of substrate hydrolysis in the presence of compound. […] Inhibition was determined as the ratio of activity in the presence of compound to that in the absence of compound. […] Cells were washed extensively and incubated in drug-free medium to allow net compound efflux from cells. Cells were then tested for lysosomal GCase activity at 2 hour intervals over a total period of 8 hours following compound removal. The increase in activity over time was fitted with a single exponential function to determine the compound's washout time.

Where [5] appears, read: pH 7 (endoplasmic reticulum pH), read-out: IC50 pH 7.

Where a chain is given by its changes, count along the chain named. “And” between values parts separate entries of the source, which are not always exact repeats. Equal entries are not always repeated. Structures can show the parent of a compound that is named as a salt. Where two headings read alike, the source gives them in different places.

Take `O[C@@H]1[C@@H](CCl)CNC[C@H]1O` [Compound B, (3R,4R,5S)-5-(chloromethyl)piperidine-3,4-diol]: in series [1] (pH 5.2, average of three independent experiments, Table 4A, read-out: IC50 pH 5.2), the IC50 was 73 ± 9 nM. Also, the IC50 in series [1] (pH 5.2, average of three independent experiments, Table 4B, read-out: IC50 pH 5.2) came out at 73 ± 9 nM. Moreover, the Ki in series [1] (pH 5.2, read-out: Ki pH 5.2) was 384 ± 2.1 nM. Also, the IC50 in series [1] (setting [5]) was found to be 9.8 ± 0.5 nM. Moreover, the Ki in series [1] (pH 7, read-out: Ki pH 7) worked out at 5.1 ± 0.3 nM. Also, in series [2], the 50% effective concentration (EC50) was 9.6 ± 1 nM, the Emax is 104 ± 3.4%, the “effect on GCase activity” value is “concentration-dependent increase in GCase activity” and the “enhancement of enzyme activity compared to IFG-tartrate” value is listed as “enhanced enzyme activity to the same maximum level at much lower concentration”. Moreover, in series [3] (compared to hydrochloride salt form of Compound A), the brain levels result was “even higher levels of Compound B were detected in brain”. In series [4], the IC50 was 121 ± 7 nM and the “In Situ Washout” value amounted to 2.9 ± 0.22 h.
Consider `O[C@@H]1CNCC(CF)[C@H]1O` (stereo in doubt) [Compound A, (3R,4R,5R)-5-(fluoromethyl)piperidine-3,4-diol], for which the IC50 turned out to be 10 ± 1 nM in series [1] (pH 5.2, average of three independent experiments, Table 3A, read-out: IC50 pH 5.2) and 10 ± 1 nM in series [1] (pH 5.2, average of three independent experiments, Table 3B, read-out: IC50 pH 5.2). Also, in series [3] (compared to IFG), the “blood brain barrier crossing” value was “crossed the blood brain barrier more readily as compared to IFG”.
Consider `O[C@@H]1CNCC(CF)[C@H]1O` (stereo in doubt) [Compound A-HCl, (3R,4R,5R)-5-(fluoromethyl)piperidine-3,4-diol hydrochloride], for which the inhibitory constant (Ki) was 6 nM in series [1] (pH 5.2, read-out: Ki pH 5.2); 3 nM and 4 nM in series [1] (pH 7, read-out: Ki pH 7). The IC50 in series [1] (setting [5]) is 6 nM and 7 nM; in series [4] it was 17 ± 8 nM. Besides, in series [2], the “effect on GCase activity” value is “concentration-dependent increase in GCase activity”. Also, the “enhancement of enzyme activity compared to IFG-tartrate” value in series [2] is on record as “enhanced enzyme activity to the same maximum level at much lower concentration”. For the same compound, the “In Situ Washout” value in series [4] came out at 6.6 ± 0.12 h.
